Laboratory results as given in patent publication EP0619297B1, “Fungicides for the control of take-all desease of plants” (MONSANTO COMPANY, priority 1993, dated 1994).
≈ marks a conversion by molar mass, not a printed value.

Assays:
[1] = tested on: Gaeumannomyces graminis var. tritici (Ggt); assay: In vitro assay: mycelial growth on minimal media agar plates (Percent Inhibition; IC50); type: cell-based; conditions: for inhibition at 0.1 ppm: 0.1 ppm in agar, read-out: In vitro(ppm) 0.1, Percent Inhibition; for inhibition at 0.1 ppm / inhibition at 1 ppm / inhibition at 10 ppm: 19 - 20 °C, 4 to 5 days; for inhibition at 1 ppm: 1 ppm in agar, read-out: In vitro(ppm) 1, Percent Inhibition; for inhibition at 10 ppm: 10 ppm in agar, read-out: In vitro(ppm) 10, Percent Inhibition; for IC50: interpolated from percent inhibition at 1, 0.1, 0.01, 0.001 and 0.0001 ppm
Protocol: The test compounds (0.25 mL of an appropriate stock solution in acetone) are incorporated into 25 mL minimal media agar [prepared by autoclaving a solution of 17.5 g Czapek Dox broth (Difco), 7.5 g purified agar or Bacto-agar (Difco), and 500 mL distilled/deionized water, and then adding 50 µL of 1 mg/mL thiamine hydrochloride and 50 µL of 1 mg/mL biotin in 5% ethanol] and plates are prepared.
Each plate is inoculated by placing in a triangular shape three 4-mm plugs of Gaeumannomyces graminis var. tritici (Ggt) grown on the minimal media agar described above. The plates are incubated in the dark at 19 - 20 °C for 4 to 5 days. The growth of the fungus is measured as the diameter of the mycelial growth. The result is expressed as Percent Inhibition, calculated as [1 - [(mm growth on treated plate - 4)/(mm growth on control plate - 4)]] x 100.
To determine IC5O values, an in vitro assay was run on each compound at the concentrations of 1, 0.1, 0.01, 0.001, and 0.0001 ppm. The percent inhibition was calculated for each concentration using the equation described in the in vitro assay under the section on Biological Assays. Using the two ordered pairs of (concentration, % inhibition) that bracket 50% inhibition of fungal growth, the concentration for 50% inhibition is calculated from the following equation. IC50 = [(50-I2 )C1 + (I1 -50)C2 ]/(I1 -I2 ), [formula] where C1 = 10C2.

[2] = tested on: Ggt; assay: In vivo assay: control of Ggt on wheat in 3-inch pots with infested soil, rated after four weeks;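 on In vivo(ppm) 0.1, percent disease control: rate is mg active ingredient per pot in 3 mL solution not ppm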;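 on In vivo(ppm) 0.5, percent disease control: rate is mg active ingredient per pot in 3 mL solution not ppm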; design: species or system Gaeumannomyces graminis var. tritici; conditions: Gaeumannomyces graminis, 672 h, wheat, soil infested with Ggt, after four weeks; for pest or weed control at 0.02 mg/pot: rate 0.02mg/pot, read-out: In vivo(ppm) 0.02mg/pot, percent disease control; for pest or weed control at 0.1 mg/pot: rate 0.1 (head prints ppm, head line ends mg/pot), read-out: In vivo(ppm) 0.1, percent disease control; for pest or weed control at 0.1 mg/pot / pest or weed control at 0.5 mg/pot: N = no control; for pest or weed control at 0.5 mg/pot: rate 0.5 (head prints ppm, head line ends mg/pot), read-out: In vivo(ppm) 0.5, percent disease control
Protocol: Compounds are tested for control of Ggt on 'Bergen' or 'Anza' varieties of wheat grown in 3-inch square pots containing soil infested with Ggt. The infestation is accomplished by mixing the soil with an inoculum prepared by growing Ggt on 1/4 strength potato dextrose agar (4.875 g potato dextrose agar, 5.0 g Bacto agar, 500 mL distilled, deionized water) in plates and using plugs from the plates to infest sterile oats (400 cc whole oats, 350 mL deionized water, autoclaved). After a one-month incubation period at room temperature, the oats are dried and mixed with the soil at 4% v/v. Four wheat seeds are placed on top of the soil in each pot. […] Five pots are used for each treatment level and the controls, which are untreated, inoculated and non-inoculated pots. After one hour drying time, the seeds are covered with more of the appropriate soil and a layer of vermiculite. The pots are placed in a growth chamber and watered each day. After four weeks, each pot is evaluated for evidence of disease by examination of the seminal roots of each plant under a dissecting microscope. A 0 to 5 rating scale having the following meanings is used: • 0 = no runner hyphae or lesions present • 1 = runner hyphae and a few small lesions present on <10% of root system • 2 = runner hyphae and small lesions present on 10 - 25% of root system • 3 = runner hyphae and lesions present on 25 - 50% of root system • 4 = runner hyphae and many, large, coalescing lesions on >50% of root system • 5 = root system and culm completely inundated with lesions and runner hyphae
From each set of five replicates a high or low score may be eliminated to assure the best representative scores are used to calculate a replicate mean by averaging the remaining scores. This mean score is then compared to the untreated control score and a percent disease control is calculated.

[3] = tested on: Ggt; assay: In vivo (8 week) seed treatment assay: Large Pot Greenhouse Take-All Assay; design: species or system Gaeumannomyces graminis var. tritici; conditions: wheat, 6-inch pots, roots rated after 7-10 weeks; for % control (rates are g/kg seed) 0.25: seed treatment 0.25 g/kg seed; for % control (rates are g/kg seed) 0.5: seed treatment 0.5 g/kg seed; for % control (rates are g/kg seed) 1 g: seed treatment 1 g/kg seed; for % control (rates are g/kg seed) 0.125: seed treatment 0.125 g/kg seed
Protocol: An advanced 8-week seed treatment in vivo assay in soil is as follows.
Compounds are tested for control of Ggt on 'Bergen' or 'Anza' varieties of wheat grown in 6-inch round pots containing soil (equal to thirds of Metro-mix, sand, and silt-loam field soil, all steam sterilized). Seeds are treated with a solution of compound of the present invention at 10,000 ppm stock solution in acetone. 20 mg in 2 ml will treat 10 g of seed at each of 4 rates. Using a 10,000 ppm stock for each compound make the following dilutions series:
A treatment jar is rinsed 2 times with 3 ml of actone. Then 1 ml of the solution is swirled to cover the base of the jar. 10 g of seed are added to the jar and capped after which the jar is swirled and shaken until the seeds get a rapid and even coverage. After about 30-50 seconds the lid is removed as the shaking is continued. After 1 minute the jar is set down to dry. When dry, the seed are poured back into the envelope for either planting in the pots or stored until such planting. The method of planting is as follows:
The 6-inch pots are packed to their ledge with the above soil mix.
a) Treated seed is placed on the surface of the soil (packed to ledge) at the rate of 8 seeds per pot with the seeds about 2-3 inches apart. 5 pots (replicates) are planted per treatment. b) 15 ml of oat inoculum (about 4g) are measured and sprinkled evenly over the soil surface of each pot. c) The soil/seed/inoculum is covered with 180 ml of soil mix (same as above). A 150 ml beaker filled to the top edge-is about 180 ml. d) Initially each of the prepared pots is watered lightly several times to wet soil without washing out seeds. e) In cool winter months the prepared pots are left in the greenhouse at 16° - 18°C with only minimal supplemental light. In warmer months the prepared pots are put in a growth chamber set at 17°C for 3-4 weeks to establish disease, then placed in a greenhouse until harvest. The wheat is harvested, washed, and the roots are rated after 7-10 weeks. f) A % of diseased root area is assigned values using 1, 5, 10, 20, 30, 40, 50, 60, 80, or 100 %. Each pot of plants gets a single rating.

SMILES	inhibition at 0.1 ppm [1] [%]	inhibition at 1 ppm [1] [%]	inhibition at 10 ppm [1] [%]	IC50 [1] [ng/mL]	pest or weed control at 0.02 mg/pot [2] [%]	pest or weed control at 0.1 mg/pot [2] [%]	pest or weed control at 0.5 mg/pot [2] [%]	% control (rates are g/kg seed) 0.25 [3] [%]	% control (rates are g/kg seed) 0.5 [3] [%]	% control (rates are g/kg seed) 1 g [3] [%]	% control (rates are g/kg seed) 0.125 [3] [%]
CCCNC(=O)c1c(OC2(C)CCCCC2)ccc2ccccc12 [Example 40, N-propyl 2-[(1-methyl-1-cyclohexyl)oxy]-1-naphthamide]	74	83	98	63.6 (≈ 0.195 µM)	3	32	60	13	13	22	–
C=CCNC(=O)c1c(OC(C)(CC)CC)ccc2ccccc12 [Example 29, N-allyl 2-[(1,1-diethylethyl)oxy]-1-naphthamide]	96	96	96	8.14 (≈ 0.0261 µM)	40	57	75	0	4	4	–
C=CCNC(=O)c1c(OC2(C)CCCC2)ccc2ccccc12 [Example 37, N-allyl 2-[(1-methyl-1-cyclopentyl)oxy]-1-naphthamide]	93	98	98	7.43 (≈ 0.024 µM)	28	53	63	4	4	4	4
CCN(CC)C(=O)c1c(OC(C)(CC)CC)ccc2ccccc12 [Example 30, N,N-diethyl 2-[(1,1-diethylethyl)oxy]-1-naphthamide]	91	96	96	7.43 (≈ 0.0227 µM)	31	43	28	22	0	13	–
CCNC(=O)c1c(OC(C)(C)CC)ccc2ccccc12 [Example 26, N-ethyl 2-[(1,1-dimethylpropyl)oxy]-1-naphthamide]	76	95	98	–	17	56	84	25	4	25	25
C=CCNC(=O)c1c(OC(C)(C)CC)ccc2ccccc12 [Example 27, N-allyl 2-[(1,1-dimethylpropyl)oxy]-1-naphthamide]	93	98	98	8.44 (≈ 0.0284 µM)	27	75	95	21	0	25	21
CCCNC(=O)c1c(OC(CC)(CC)CC)ccc2ccccc12 [Example 34, N-propyl 2-[(1,1-diethylpropyl)oxy]-1-naphthamide]	95	95	95	6.62 (≈ 0.0202 µM)	18	44	49	17	0	9	–
